In US20190152962A1, “CYCLOPROPYL DERIVATIVES AS ROR-GAMMA MODULATORS” (CADILA HEALTHCARE LIMITED, priority 2016, published 2019):

Legend:
full length human RORγt = molecular target: T1, full length human RORγt (Homo sapiens, UniProt P51449); experiment: 5×RORE based luciferase assay; format: cell-based; settings: COS-7 cells transfected with 5×RORE-Luc and hRORγt, 18-20 h treatment
T1 construct: full length human RORγt together in COS-7 cells; expressed in transfected cells; host or cells: COS-7
T1 sequence (P51449 1-497 isoform P51449-2): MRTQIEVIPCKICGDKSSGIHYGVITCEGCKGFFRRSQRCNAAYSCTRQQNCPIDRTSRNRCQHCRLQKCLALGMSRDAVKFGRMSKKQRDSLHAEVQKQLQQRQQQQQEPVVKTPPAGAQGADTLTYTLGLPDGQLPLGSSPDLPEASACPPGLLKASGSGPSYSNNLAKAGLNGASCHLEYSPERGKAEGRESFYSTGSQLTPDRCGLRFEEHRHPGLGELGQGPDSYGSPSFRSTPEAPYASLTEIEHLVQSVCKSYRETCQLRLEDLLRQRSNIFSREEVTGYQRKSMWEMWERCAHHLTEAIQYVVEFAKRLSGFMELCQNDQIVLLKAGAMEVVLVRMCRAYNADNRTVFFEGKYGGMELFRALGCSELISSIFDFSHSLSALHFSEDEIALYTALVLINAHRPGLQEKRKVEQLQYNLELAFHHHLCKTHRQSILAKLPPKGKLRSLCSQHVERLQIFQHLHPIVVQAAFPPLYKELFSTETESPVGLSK
Description: Human RORγt (hRORγt) inhibitors were screened in RORE (RORγt Response Element) based Luciferase assay by transient transfection of 5×RORE (5 tandem repeats of RORγt Response Element) and full length human RORγt together in COS-7 cells. COS-7 cells were maintained as monolayer in complete DMEM (High Glucose) medium in presence of 2 mM Glutamin and 1× Sodium Pyruvate. Day before transfection, 15000 cells were seeded in 96 well cell culture plate in 100 μl antibiotic free medium and incubated at 37° C. in 5% CO2 containing humidified chamber O/N. Prior to transfection, cells were fed with fresh complete growth medium and incubated until the addition of transfection complex. Transfection complex for the required numbers of wells were prepared from pGL2-promoter-5×RORE-Luc plasmid, pcDNA3.1 (+)-hRORγt expression plasmid, pβ-GAL plasmid (transfection control), and Lipofectamine 3000 (Invitrogen). 50 μl of transfection complex were added in 100 μl of complete medium to respective wells, mixed gently and plate was incubated for 5-6 h at 37° C. in 5% CO2 containing humidified chamber. After 5 h of transfection, content of the wells were aspirated and cells were treated with increasing concentration of RORγt inverse agonist in medium devoid of serum with a final DMSO concentration of 0.2% for 18-20 h at 37° C. in 5% CO2 containing humidified chamber. Next day, cells were lysed and the lysates were assayed for luciferase and β-GAL activity using Promega's luciferase assay system and an in-house made β-GAL assay buffer respectively. Luciferase signals were normalized with β-GAL and % activity was determined with respect to that of 10 nM control ligand.
IC50 of selected compounds were then determined by nonlinear regression analysis of % activity, plotted against compound concentration (Table 4).

[1] = tested on: secreted IL-17 in peripheral blood mononuclear cells (PBMCs); experiment: Human IL-17 inhibition assay; format: cell-based; settings: PBMC, anti-CD3/anti-CD28, 72 h, read-out: IL17 IC50
Description: Peripheral blood mononuclear cells (PBMCs) were isolated from healthy volunteers and subjected to T cell polarization assay. Two million PBMCs were placed on anti-CD3 (Biolegend, US) coated 96-well plates and 1 μg/mL of anti-CD28 (Biolegend, US) was added along with RORγt inhibitors or the vehicle control and incubated at 37° C. and 5% CO2 for 72 h. At the end of incubation time, the supernatant was collected and analyzed for secreted IL-17 using sandwich enzyme immunoassay (Mabtech AB, Sweden). The results were analyzed using Graphpad Prism and the half-maximal inhibitory concentrations (IC50) of the test compounds were derived (Table 4).

IC50 (full length human RORγt) [µM]	SMILES	IC50 [1] [µM]
0.0019	CCS(=O)(=O)c1ccc(CC(=O)Nc2cc(Cl)c(C3(c4noc(-c5ccc(C#N)cc5)n4)CC3)c(Cl)c2)nc1 [Example 53, N-(3,5-dichloro-4-(1-(5-(4-cyanophenyl)-1,2,4-oxadiazol-3-yl)cyclopropyl)phenyl)-2-(5-(ethylsulfonyl)pyridin-2-yl)acetamide]	0.048
0.0034	CCS(=O)(=O)c1ccc(CC(=O)Nc2cc(Cl)c(C3(c4nc5ccc(F)cc5o4)CC3)c(Cl)c2)nc1 [Example 58, N-(3,5-dichloro-4-(1-(6-fluorobenzo[d]oxazol-2-yl)cyclopropyl)phenyl)-2-(5-(ethylsulfonyl)pyridin-2-yl)acetamide]	0.0233
0.0092	CCS(=N)(=O)c1ccc(CC(=O)Nc2cc(Cl)c(C3(c4noc(-c5ccc(F)cc5)n4)CC3)c(Cl)c2)cc1 (stereo not drawn) [Example 61, N-(3,5-dichloro-4-(1-(5-(4-fluorophenyl)-1,2,4-oxadiazol-3-yl)cyclopropyl)phenyl)-2-(4-(ethylsulfonimidoyl)phenyl)acetamide]	0.035
0.011	O=C(Cc1ccc(S(=O)(=O)NC2CC2)cc1)Nc1cc(Cl)c(C2(c3noc(-c4ccc(F)cc4)n3)CC2)c(Cl)c1 [Example 63, 2-(4-(N-cyclopropylsulfamoyl)phenyl)-N-(3,5-dichloro-4-(1-(5-(4-fluorophenyl)-1,2,4-oxadiazol-3-yl)cyclopropyl)phenyl)acetamide]	0.018
0.0159	O=C(Cc1ccc(S(=O)(=O)NC2CC2)cc1)Nc1cc(Cl)c(C2(c3noc(-c4ccc(C(F)(F)F)cc4)n3)CC2)c(Cl)c1 [Example 64, 2-(4-(N-cyclopropylsulfamoyl)phenyl)-N-(3,5-dichloro-4-(1-(5-(4-(trifluoromethyl)phenyl)-1,2,4-oxadiazol-3-yl)cyclopropyl)phenyl)acetamide]	0.063
0.0024	O=C(Cc1ccc(S(=O)(=O)NC2CC2)cc1)Nc1cc(Cl)c(C2(c3nc4ccc(F)cc4o3)CC2)c(Cl)c1 [Example 65, 2-(4-(N-cyclopropylsulfamoyl)phenyl)-N-(3,5-dichloro-4-(1-(6-fluorobenzo[d]oxazol-2-yl)cyclopropyl)phenyl)acetamide]	0.006
0.0096	CCS(=O)(=O)c1ccc(CC(=O)Nc2cc(Cl)c(C3(c4noc(-c5ccc(F)c(F)c5)n4)CC3)c(Cl)c2)cn1 [Example 68, N-(3,5-dichloro-4-(1-(5-(3,4-difluorophenyl)-1,2,4-oxadiazol-3-yl)cyclopropyl)phenyl)-2-(6-(ethylsulfonyl)pyridin-3-yl)acetamide]	0.0427
0.0064	CCS(=O)(=O)c1ccc(CC(=O)Nc2cc(Cl)c(C3(c4noc(-c5ccc(F)cc5F)n4)CC3)c(Cl)c2)cn1 [Example 69, N-(3,5-dichloro-4-(1-(5-(2,4-difluorophenyl)-1,2,4-oxadiazol-3-yl)cyclopropyl)phenyl)-2-(6-(ethylsulfonyl)pyridin-3-yl)acetamide]	0.0224
0.017	CCS(=O)(=O)c1ccc(CC(=O)Nc2cc(Cl)c(C3(c4noc(-c5ccc(F)c(Cl)c5)n4)CC3)c(Cl)c2)cn1 [Example 70, N-(3,5-dichloro-4-(1-(5-(3-chloro-4-fluorophenyl)-1,2,4-oxadiazol-3-yl)cyclopropyl)phenyl)-2-(6-(ethylsulfonyl)pyridin-3-yl)acetamide]	0.022
0.0157	CCS(=O)(=O)c1ccc(CC(=O)Nc2cc(Cl)c(C3(c4noc(-c5ccc(Cl)c(Cl)c5)n4)CC3)c(Cl)c2)cn1 [Example 71, N-(3,5-dichloro-4-(1-(5-(3,4-dichlorophenyl)-1,2,4-oxadiazol-3-yl)cyclopropyl)phenyl)-2-(6-(ethylsulfonyl)pyridin-3-yl)acetamide]	0.032
0.02	CCS(=O)(=O)c1ccc(CC(=O)Nc2cc(Cl)c(C3(c4noc(-c5ccc(Cl)cc5)n4)CC3)c(Cl)c2)cn1 [Example 72, N-(3,5-dichloro-4-(1-(5-(4-chlorophenyl)-1,2,4-oxadiazol-3-yl)cyclopropyl)phenyl)-2-(6-(ethylsulfonyl)pyridin-3-yl)acetamide]	0.0208
0.0176	CCS(=O)(=O)c1ccc(CC(=O)Nc2cc(Cl)c(C3(c4noc(-c5ccc(C#N)cc5)n4)CC3)c(Cl)c2)cn1 [Example 73, N-(3,5-dichloro-4-(1-(5-(4-cyanophenyl)-1,2,4-oxadiazol-3-yl)cyclopropyl)phenyl)-2-(6-(ethylsulfonyl)pyridin-3-yl)acetamide]	0.0234
0.0239	CCS(=O)(=O)c1ccc(CC(=O)Nc2cc(Cl)c(C3(c4nc5ccc(F)cc5o4)CC3)c(Cl)c2)cn1 [Example 74, N-(3,5-dichloro-4-(1-(6-fluorobenzo[d]oxazol-2-yl)cyclopropyl)phenyl)-2-(6-(ethylsulfonyl)pyridin-3-yl)acetamide]	0.0238
0.0079	CCS(=O)(=O)c1cnc(CC(=O)Nc2cc(Cl)c(C3(c4nc5ccc(F)cc5o4)CC3)c(Cl)c2)cn1 [Example 78, N-(3,5-dichloro-4-(1-(6-fluorobenzo[d]oxazol-2-yl)cyclopropyl)phenyl)-2-(5-(ethylsulfonyl)pyrazin-2-yl)acetamide]	0.0473
0.0123	CCS(=O)(=O)c1ccc(CC(=O)Nc2cc(Cl)c(C3(c4nnc(-c5ccc(F)cc5)o4)CC3)c(Cl)c2)cc1 [Example 79, N-(3,5-dichloro-4-(1-(5-(4-fluorophenyl)-1,3,4-oxadiazol-2-yl)cyclopropyl)phenyl)-2-(4-(ethylsulfonyl)phenyl)acetamide]	0.039
